# Legend:
# Experiment in all cases: KINOMEscan competition binding
# Conditions in all cases: compound 10.0 µM
# [1] = test system: ABL1 (human), P00519 [M351T]
# [2] = molecular target: ACVR2A (human) (UniProt P27037)
# [3] = molecular target: BMPR1B (human) (UniProt O00238)
# [4] = molecular target: BRSK1 (human) (UniProt Q8TDC3)
# [5] = molecular target: CDK19 (human) (UniProt Q9BWU1)
# [6] = molecular target: CDK9 (human) (UniProt P50750)
# [7] = molecular target: CSNK1A1 (human) (UniProt P48729)
# [8] = molecular target: CSNK1G3 (human) (UniProt Q9Y6M4)
# [9] = molecular target: DCLK1 (human) (UniProt O15075)
# [10] = molecular target: EPHA1 (human) (UniProt P21709)
# [11] = molecular target: EPHA5 (human) (UniProt P54756)
# [12] = molecular target: EPHA6 (human) (UniProt Q9UF33)
# [13] = molecular target: EPHA8 (human) (UniProt P29322)
# [14] = test system: KIT (human), P10721 [D816H]
# Chain of KIT (human), P10721 [D816H] (P10721 whole entry D816H, looked up): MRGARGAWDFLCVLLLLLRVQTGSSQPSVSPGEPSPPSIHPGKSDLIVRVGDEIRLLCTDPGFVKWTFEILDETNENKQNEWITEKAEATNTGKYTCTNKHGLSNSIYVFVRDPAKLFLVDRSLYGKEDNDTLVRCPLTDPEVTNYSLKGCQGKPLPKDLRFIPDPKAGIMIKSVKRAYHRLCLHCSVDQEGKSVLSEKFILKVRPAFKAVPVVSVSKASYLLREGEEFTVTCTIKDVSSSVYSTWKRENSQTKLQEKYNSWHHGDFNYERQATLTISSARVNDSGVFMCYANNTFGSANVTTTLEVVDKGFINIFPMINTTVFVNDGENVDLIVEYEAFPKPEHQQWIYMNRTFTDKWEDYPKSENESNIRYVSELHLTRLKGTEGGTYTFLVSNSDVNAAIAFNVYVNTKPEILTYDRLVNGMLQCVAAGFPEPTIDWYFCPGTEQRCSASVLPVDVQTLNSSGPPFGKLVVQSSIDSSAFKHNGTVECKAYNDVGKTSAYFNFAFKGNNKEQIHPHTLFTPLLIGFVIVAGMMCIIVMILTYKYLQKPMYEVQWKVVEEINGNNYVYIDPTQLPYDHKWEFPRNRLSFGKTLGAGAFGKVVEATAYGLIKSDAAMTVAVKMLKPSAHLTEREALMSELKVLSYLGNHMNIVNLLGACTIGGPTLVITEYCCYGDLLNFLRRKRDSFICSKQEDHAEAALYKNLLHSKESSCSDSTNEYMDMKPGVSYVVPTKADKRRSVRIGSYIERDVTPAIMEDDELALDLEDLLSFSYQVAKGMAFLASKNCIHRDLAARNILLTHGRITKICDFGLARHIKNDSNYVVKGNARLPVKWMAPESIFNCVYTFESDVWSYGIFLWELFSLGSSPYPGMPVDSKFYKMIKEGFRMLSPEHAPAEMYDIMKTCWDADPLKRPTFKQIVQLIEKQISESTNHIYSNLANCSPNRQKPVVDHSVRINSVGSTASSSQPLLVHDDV
# [15] = molecular target: LATS1 (human) (UniProt O95835)
# [16] = molecular target: LATS2 (human) (UniProt Q9NRM7)
# Chain of LATS2 (human) (Q9NRM7 whole entry, looked up): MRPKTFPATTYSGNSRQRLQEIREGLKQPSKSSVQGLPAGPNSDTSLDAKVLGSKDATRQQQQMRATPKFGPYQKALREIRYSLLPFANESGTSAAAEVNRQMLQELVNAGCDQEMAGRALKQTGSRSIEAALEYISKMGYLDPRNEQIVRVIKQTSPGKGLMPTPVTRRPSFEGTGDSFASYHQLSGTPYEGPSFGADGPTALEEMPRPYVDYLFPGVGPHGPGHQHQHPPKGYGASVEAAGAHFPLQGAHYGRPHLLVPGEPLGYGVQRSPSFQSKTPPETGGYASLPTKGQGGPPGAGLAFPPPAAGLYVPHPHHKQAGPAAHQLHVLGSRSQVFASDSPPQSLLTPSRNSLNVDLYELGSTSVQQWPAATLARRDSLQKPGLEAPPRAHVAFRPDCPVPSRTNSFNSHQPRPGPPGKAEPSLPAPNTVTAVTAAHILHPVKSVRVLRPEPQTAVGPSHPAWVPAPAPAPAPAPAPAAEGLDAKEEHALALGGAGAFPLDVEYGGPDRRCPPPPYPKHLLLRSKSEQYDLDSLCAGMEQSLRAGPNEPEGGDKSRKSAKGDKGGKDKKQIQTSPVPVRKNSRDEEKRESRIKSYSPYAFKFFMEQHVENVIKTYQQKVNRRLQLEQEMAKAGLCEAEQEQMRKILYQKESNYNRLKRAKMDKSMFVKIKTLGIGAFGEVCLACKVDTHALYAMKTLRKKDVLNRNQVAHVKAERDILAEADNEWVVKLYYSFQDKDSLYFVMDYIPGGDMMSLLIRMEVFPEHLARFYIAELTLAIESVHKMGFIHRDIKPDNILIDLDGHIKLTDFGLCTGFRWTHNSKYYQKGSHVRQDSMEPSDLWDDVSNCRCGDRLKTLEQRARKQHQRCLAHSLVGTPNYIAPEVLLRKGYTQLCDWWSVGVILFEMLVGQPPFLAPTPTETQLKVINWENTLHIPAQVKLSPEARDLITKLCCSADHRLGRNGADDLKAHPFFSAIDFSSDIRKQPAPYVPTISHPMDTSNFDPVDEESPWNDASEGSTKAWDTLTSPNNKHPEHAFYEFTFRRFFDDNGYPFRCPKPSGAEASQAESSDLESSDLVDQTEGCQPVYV
# [17] = molecular target: MAP2K5 (human) (UniProt Q13163)
# [18] = molecular target: MAP2K7 (human) (UniProt O14733)
# [19] = molecular target: MAP3K12 (human) (UniProt Q12852)
# [20] = molecular target: MAP3K4 (human) (UniProt Q9Y6R4)
# [21] = molecular target: MAP4K4 (human) (UniProt O95819)
# [22] = molecular target: MAPK12 (human) (UniProt P53778)
# [23] = molecular target: MAPK14 (human) (UniProt Q16539)
# [24] = molecular target: MET (human) (UniProt P08581)
# [25] = molecular target: MYLK (human) (UniProt Q15746)
# Chain of MYLK (human) (Q15746 whole entry, looked up): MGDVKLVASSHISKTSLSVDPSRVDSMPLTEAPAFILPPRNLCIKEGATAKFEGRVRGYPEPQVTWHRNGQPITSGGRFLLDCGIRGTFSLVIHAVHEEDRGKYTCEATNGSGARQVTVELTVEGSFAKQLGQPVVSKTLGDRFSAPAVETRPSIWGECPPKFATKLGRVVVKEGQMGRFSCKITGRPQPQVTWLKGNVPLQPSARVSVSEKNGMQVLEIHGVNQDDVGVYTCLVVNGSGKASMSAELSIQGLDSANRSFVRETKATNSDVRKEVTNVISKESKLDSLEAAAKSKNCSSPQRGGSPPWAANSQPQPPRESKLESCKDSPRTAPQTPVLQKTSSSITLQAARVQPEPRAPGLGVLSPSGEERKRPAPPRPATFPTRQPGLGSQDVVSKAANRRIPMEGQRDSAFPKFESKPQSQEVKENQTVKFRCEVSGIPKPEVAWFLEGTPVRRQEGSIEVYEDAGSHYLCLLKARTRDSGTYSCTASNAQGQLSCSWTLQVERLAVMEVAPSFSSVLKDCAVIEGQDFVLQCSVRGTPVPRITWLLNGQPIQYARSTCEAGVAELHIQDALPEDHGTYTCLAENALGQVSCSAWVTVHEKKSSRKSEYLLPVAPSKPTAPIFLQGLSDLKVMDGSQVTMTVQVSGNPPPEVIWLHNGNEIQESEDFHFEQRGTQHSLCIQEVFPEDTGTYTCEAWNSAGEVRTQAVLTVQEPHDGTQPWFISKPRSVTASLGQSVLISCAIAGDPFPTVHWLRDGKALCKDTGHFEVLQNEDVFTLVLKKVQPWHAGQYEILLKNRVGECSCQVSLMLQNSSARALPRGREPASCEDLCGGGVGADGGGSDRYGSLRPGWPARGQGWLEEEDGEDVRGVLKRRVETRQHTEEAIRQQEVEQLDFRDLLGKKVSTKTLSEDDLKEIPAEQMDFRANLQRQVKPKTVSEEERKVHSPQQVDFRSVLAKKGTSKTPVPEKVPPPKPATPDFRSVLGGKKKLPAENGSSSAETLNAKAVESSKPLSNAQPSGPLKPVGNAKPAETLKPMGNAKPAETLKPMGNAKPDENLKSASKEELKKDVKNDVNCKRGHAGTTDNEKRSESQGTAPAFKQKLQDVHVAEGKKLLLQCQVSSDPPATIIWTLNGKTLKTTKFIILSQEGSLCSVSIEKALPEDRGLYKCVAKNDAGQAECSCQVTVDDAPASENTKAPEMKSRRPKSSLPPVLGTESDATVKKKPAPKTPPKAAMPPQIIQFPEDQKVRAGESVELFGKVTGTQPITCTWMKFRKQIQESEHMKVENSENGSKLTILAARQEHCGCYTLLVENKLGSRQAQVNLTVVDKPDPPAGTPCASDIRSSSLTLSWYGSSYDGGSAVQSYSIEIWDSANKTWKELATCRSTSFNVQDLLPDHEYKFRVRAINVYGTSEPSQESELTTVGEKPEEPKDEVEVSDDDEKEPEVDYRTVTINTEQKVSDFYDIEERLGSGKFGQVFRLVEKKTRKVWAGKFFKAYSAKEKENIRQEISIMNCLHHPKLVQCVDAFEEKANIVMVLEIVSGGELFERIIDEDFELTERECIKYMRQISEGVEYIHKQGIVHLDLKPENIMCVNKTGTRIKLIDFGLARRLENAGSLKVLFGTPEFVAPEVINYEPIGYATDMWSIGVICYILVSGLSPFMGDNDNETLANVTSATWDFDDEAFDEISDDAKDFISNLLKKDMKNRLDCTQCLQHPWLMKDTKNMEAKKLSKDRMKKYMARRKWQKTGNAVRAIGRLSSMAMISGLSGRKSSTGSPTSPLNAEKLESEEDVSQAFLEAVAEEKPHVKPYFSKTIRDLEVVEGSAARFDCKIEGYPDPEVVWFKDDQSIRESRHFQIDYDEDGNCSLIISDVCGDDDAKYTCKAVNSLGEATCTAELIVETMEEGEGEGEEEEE
# [26] = molecular target: MYLK3 (human) (UniProt Q32MK0)
# [27] = molecular target: NEK4 (human) (UniProt P51957)
# [28] = molecular target: PAK1 (human) (UniProt Q13153)
# [29] = molecular target: PAK6 (human) (UniProt Q9NQU5)
# [30] = molecular target: PLK4 (human) (UniProt O00444)
# [31] = molecular target: PRKG2 (human) (UniProt Q13237)
# [32] = test system: RET (human), P07949 [V804L]
# Chain of RET (human), P07949 [V804L] (P07949 whole entry V804L, looked up): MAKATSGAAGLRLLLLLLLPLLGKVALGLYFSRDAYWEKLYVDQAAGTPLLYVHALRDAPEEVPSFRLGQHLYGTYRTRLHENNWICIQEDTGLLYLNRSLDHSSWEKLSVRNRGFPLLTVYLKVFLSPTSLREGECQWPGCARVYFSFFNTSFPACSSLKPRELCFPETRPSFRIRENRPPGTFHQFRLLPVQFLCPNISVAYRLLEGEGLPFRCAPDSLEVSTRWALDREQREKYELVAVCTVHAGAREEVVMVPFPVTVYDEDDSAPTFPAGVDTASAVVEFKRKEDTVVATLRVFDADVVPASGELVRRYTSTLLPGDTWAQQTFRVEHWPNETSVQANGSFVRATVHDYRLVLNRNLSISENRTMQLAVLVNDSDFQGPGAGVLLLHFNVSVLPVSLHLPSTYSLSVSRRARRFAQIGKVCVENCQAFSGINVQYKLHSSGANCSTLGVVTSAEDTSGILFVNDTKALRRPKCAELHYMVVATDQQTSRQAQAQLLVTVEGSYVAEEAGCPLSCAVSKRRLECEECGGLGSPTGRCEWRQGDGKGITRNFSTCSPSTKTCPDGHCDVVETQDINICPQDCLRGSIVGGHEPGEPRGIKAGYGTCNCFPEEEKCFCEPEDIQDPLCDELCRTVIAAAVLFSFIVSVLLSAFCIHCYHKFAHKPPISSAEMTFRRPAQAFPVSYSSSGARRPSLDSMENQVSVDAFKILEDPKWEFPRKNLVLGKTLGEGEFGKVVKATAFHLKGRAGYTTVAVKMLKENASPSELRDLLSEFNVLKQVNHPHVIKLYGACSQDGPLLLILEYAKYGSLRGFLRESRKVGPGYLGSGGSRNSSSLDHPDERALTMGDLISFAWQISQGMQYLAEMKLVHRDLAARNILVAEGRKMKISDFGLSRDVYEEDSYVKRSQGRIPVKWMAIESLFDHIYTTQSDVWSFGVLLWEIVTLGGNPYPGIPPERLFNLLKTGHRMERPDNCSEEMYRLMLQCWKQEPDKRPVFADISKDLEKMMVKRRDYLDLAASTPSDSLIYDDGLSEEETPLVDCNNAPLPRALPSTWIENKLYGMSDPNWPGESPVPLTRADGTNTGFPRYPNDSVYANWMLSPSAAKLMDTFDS
# [33] = test system: RET (human), P07949 [V804M]
# Chain of RET (human), P07949 [V804M] (P07949 whole entry V804M, looked up): as the sequence (P07949 whole entry V804L, looked up) above, with L804M counted along it
# [34] = molecular target: RIOK2 (human) (UniProt Q9BVS4)
# [35] = molecular target: RPS6KA1 KD1 (human) (UniProt Q15418)
# [36] = molecular target: RPS6KA5 KD1 (human) (UniProt O75582)
# [37] = molecular target: STK17A (human) (UniProt Q9UEE5)
# [38] = molecular target: STK25 (human) (UniProt O00506)
# [39] = molecular target: TNK2 (human) (UniProt Q07912)
# [40] = molecular target: TYRO3 (human) (UniProt Q06418)
# [41] = molecular target: ZAP70 (human) (UniProt P43403)
compound,measurement,setting,value
COc1ccc(-c2ccc3c(N4CCOCC4)nc(N4C[C@@H](C)O[C@@H](C)C4)nc3n2)cc1CO,"kinase still bound, per cent of control",[1],100%
same,"kinase still bound, per cent of control",[2],100%
same,"kinase still bound, per cent of control",[3],99%
same,"kinase still bound, per cent of control",[4],100%
same,per cent of control,[5],73%
same,per cent of control,[6],98%
same,"kinase still bound, per cent of control",[7],100%
same,"kinase still bound, per cent of control",[8],92%
same,"kinase still bound, per cent of control",[9],100%
same,"kinase still bound, per cent of control",[10],96%
same,"kinase still bound, per cent of control",[11],94%
same,"kinase still bound, per cent of control",[12],100%
same,"kinase still bound, per cent of control",[13],80%
same,"kinase still bound, per cent of control",[14],100%
same,"kinase still bound, per cent of control",[15],96%
same,"kinase still bound, per cent of control",[16],89%
same,"kinase still bound, per cent of control",[17],100%
same,"kinase still bound, per cent of control",[18],100%
same,per cent of control,[19],100%
same,"kinase still bound, per cent of control",[20],100%
same,"kinase still bound, per cent of control",[21],88%
same,"kinase still bound, per cent of control",[22],100%
same,"kinase still bound, per cent of control",[23],99%
same,"kinase still bound, per cent of control",[24],88%
same,per cent of control,[25],57%
same,"kinase still bound, per cent of control",[26],100%
same,"kinase still bound, per cent of control",[27],76%
same,"kinase still bound, per cent of control",[28],84%
same,"kinase still bound, per cent of control",[29],90%
same,"kinase still bound, per cent of control",[30],100%
same,"kinase still bound, per cent of control",[31],100%
same,"kinase still bound, per cent of control",[32],100%
same,"kinase still bound, per cent of control",[33],94%
same,"kinase still bound, per cent of control",[34],60%
same,"kinase still bound, per cent of control",[35],70%
same,"kinase still bound, per cent of control",[36],100%
same,"kinase still bound, per cent of control",[37],96%
same,"kinase still bound, per cent of control",[38],100%
same,"kinase still bound, per cent of control",[39],100%
same,"kinase still bound, per cent of control",[40],100%
same,"kinase still bound, per cent of control",[41],83%
